The text below walks through data of patent EP0583976A2, “Gastroprotective complexes with cyclodextrin” (Bristol-Myers Squibb Company, priority 1992, dated 1994).

Assay [1] can be described thus: pH of gastric fluid sample obtained from the antrum after dosing. Type of assay: in vivo, beagles. The note with it: oral, with 975 mg aspirin (ASA), antacid about 15 mEq where present. The protocol: (§1) The product obtained above was tested as follows: 10 beagles were fasted overnight. At zero time, the stomach of each animal was endoscopically examined to assure a normal mucosa. Encapsulated compositions containing about 15 mEq MgO in the freshly prepared MgO-CD complex and 975 mg aspirin (ASA) were administered orally and flushed with 50 ml water.
In addition, a sample of gastric fluid was obtained from the antrum, and its general appearance noted and its pH measured.
(§2) wherein n is the number of animals, % Protection is the difference in irritation scores (on the scale of 0 to 7) between Control A and the MgO-CD complex divided by the irritation score for Control A multiplied by 100, and pH is the pH of the antrum fluid sample. The complex of the present invention is seen to have provided a substantial increase in percent protection coupled with a marked increase in pH over the controls.

The next assay has as its system beagles. In words: Endoscopic scoring of aspirin-induced gastric irritation in beagles (scale 0 to 7), percent protection. The format is in vivo. The note with it: oral, with 975 mg aspirin (ASA), antacid about 15 mEq where present; endoscopy at two and four hours; versus Control A (ASA alone). Here is the method: as §1
At two and four hours after administration of the encapsulated composition, the stomachs of the animals were endoscopically reexamined for gastric irritation. Irritation was measured according to a scale of 0 to 7, wherein zero was the condition of the mucosa for a normal stomach and a value of 7 represents massive hemorrhagic damage.
Three control tests were also conducted. In Control A the animals were administered 975 mg ASA. In Control B the animals were administered 6.27 mg α-CD and 975 aspirin and in Control C the animals were administered 15 mEq MgO and 975 aspirin.
as §2

`O=C(O)O` [MgCO₃] displayed a pH in assay [1] of 3.33 ± 0.81. Also, in the assay with beagles, the “% Protection” value is listed as 2.1 ± 6.1%.
`CC(=O)Oc1ccccc1C(=O)O` [Control A, aspirin] displayed a pH in assay [1] of 3.74 ± 0.44. In addition, in the assay on beagles, the “% Protection” value amounted to 0%.
On to CaCO₃, for which, in assay [1], the pH stood at 4.17 ± 0.90. For the same compound, the “% Protection” value in the assay with beagles was found to be 3.0 ± 5%.
Compound `[OH][Al]([OH])[OH]` [Al(OH)₃] returned a pH in assay [1] of 4.72 ± 0.85. Moreover, the “% Protection” value with beagles is given as 10.8 ± 4.6%.
